Here are results for 39 compounds from patent US10851115B2, “Heterocyclic compounds as RSV inhibitors” (Enanta Pharmaceuticals, Inc., priority 2017, dated 2020).

The EC50 is the concentration at which the effect is half-maximal.

Bounds are passed on as bounds.

The test system of this assay is Human RSV-A (“Long” strain). As to the kind of experiment: RSV in vitro cytoprotection assay in HEp-2 cells (ATPlite readout). It is filed as cell-based. The note with it: human respiratory syncytial virus, 96 h; HEp-2 cells, 4-day incubation, ATPlite; read-out: Human RSV-A (“Long” strain) EC50. The source says: RSV is a single stranded negative sense RNA virus that causes respiratory tract infections which can be dangerous to infants, the elderly, and immunosuppressed individuals. Currently there is no vaccine, and therapeutic options are both costly and of limited effectiveness. These approved treatments are Ribavirin, and Palivizumab/Synagis (a monoclonal antibody). RSV has two genotypes, A and B, which differ primarily in the structure of the virus' surface “G” attachment protein. Our current primary screen focusses on RSV-A and uses an in vitro cytoprotection assay where compounds are added in 2-fold dilutions to cells which are then subjected to fully replicative viral particles. Cell viability is measured several days later along with separate measurements of compound cytotoxicity. This report focuses on the results of our most recent screening of compounds.
HEp-2 cells, (originally derived from tumors grown in irradiated-cortisonised weanling rats that had been injected with epidermoid carcinoma tissue from a person's larynx, but later found to be indistinguishable from HeLa cells by PCR DNA analysis), were used for the culturing of genotype A, “Long” strain RSV. Flasks were inoculated with RSV and viral stocks were collected once cytopathic effect (CPE) was greater than 90%. Viral stocks in 25% sucrose media were snap frozen using liquid nitrogen to increase viral stability. Viral stock titers were quantified by tissue culture infectious dose 50% (TCID50) using 8,000 cells per well and 3-fold viral dilutions across a 96-well plate, cultured for 4 days.
Following extensive parameter testing, the final assay is run as follows: HEp-2 cells are seeded into the inner 60 wells of a 96-well plate at 8,000 cells per well in a volume of 50 μL using Growth Media (DMEM without phenol red, 1% L-Glut, 1% Penn/Strep, 1% nonessential amino acids, 10% FBS). 2-Fold serial dilutions of control and test compounds are added to the wells in duplicate in a total volume of 25 μL. Viral stock is then added to the wells in a volume of 25 μL, bringing the total volume of each well to 100 μL. Each 96-well plate has a control column of 6 wells with cells and virus but no compound (negative control, max CPE), a column with cells but no compound or virus (positive control, minimum CPE), and a column with no cells or virus or compound (background plate/reagent control). The control wells with cells but no virus are given an additional 25 uL of growth media containing an equal quantity of sucrose as those wells receiving the viral stock in order to keep consistent in media and volume conditions. The outer wells of the plate are filled with 125 μL of growth media to act as a thermal and evaporative moat around the test wells. Following a 4-day incubation period, the plates are read using ATPlite (50 uL added per well), which quantifies the amount of ATP (a measure of cell health) present in each well. Assay plates are read using the Envision luminometer. In parallel, cytotoxicity is examined on an additional 96-well plate treated in an identical manner, but substituting the 25 μL of viral stock for 25 μL of growth media. […] EC50 ranges are as follows: A<0.01 μM; B 0.01-0.05 μM; C>0.05 μM.
`O=C(Nc1c(F)cccc1F)c1cc2c(s1)-c1ccncc1N(C(=O)c1ccc(NC(=O)c3cccnc3N3CC4(CCOCC4)C3)cc1)CC2` [Example 1]: the EC50 is > 50 nM.

For the compound `O=C(Nc1c(F)cccc1Cl)c1cc2c(s1)-c1ccncc1N(C(=O)c1ccc(NC(=O)c3cccnc3N3CC4(CCOCC4)C3)cc1)CC2` [Example 2], the 50% effective concentration (EC50) fell in the range of 10 to 50 nM. As for `O=C(Nc1ccc(C(=O)N2CCc3cc(-c4nc5ccccc5[nH]4)sc3-c3ccncc32)cc1)c1cccnc1N1CC2(CCOCC2)C1` [Example 3], the EC50 was > 50 nM. On to `O=C(Nc1c(F)cccc1F)c1cc2c(s1)-c1ncccc1N(C(=O)c1ccc(NC(=O)c3cccnc3N3CC4(CCOCC4)C3)cc1)CC2` [Example 4], for which the EC50 was < 10 nM. With `O=C(Nc1c(F)cccc1Cl)c1cc2c(s1)-c1ncccc1N(C(=O)c1ccc(NC(=O)c3cccnc3N3CC4(CCOCC4)C3)cc1)CC2` [Example 5], the EC50 was < 10 nM. `O=C(Nc1ccc(C(=O)N2CCc3cc(-c4nc5ccccc5[nH]4)sc3-c3ncccc32)cc1)c1cccnc1N1CC2(CCOCC2)C1` [Example 6]: the EC50 is > 50 nM. Consider `Cc1cnc(N2CC3(CCOCC3)C2)c(C(=O)Nc2ccc(C(=O)N3CCc4cc(C(=O)Nc5c(C)cccc5C)sc4-c4ncccc43)cc2)c1` [Example 7], for which the EC50 is < 10 nM. `Cc1cnc(N2CC3(CCOCC3)C2)c(C(=O)Nc2ccc(C(=O)N3CCc4cc(C(=O)Nc5c(C)cccc5C#N)sc4-c4ncccc43)cc2)c1` [Example 8]: the EC50 is < 10 nM. Then `Cc1cnc(N2CC3(CCOCC3)C2)c(C(=O)Nc2ccc(C(=O)N3CCc4cc(C(=O)Nc5c(F)cccc5F)sc4-c4ncccc43)cc2)c1` [Example 9], with < 10 nM; and `Cc1cnc(N2CC3(CCOCC3)C2)c(C(=O)Nc2ccc(C(=O)N3CCc4cc(C(=O)Nc5c(F)cc(F)cc5F)sc4-c4ncccc43)cc2)c1` [Example 10], with < 10 nM; and `Cc1cnc(N2CC3(CCOCC3)C2)c(C(=O)Nc2ccc(C(=O)N3CCc4cc(C(=O)Nc5c(C)cccc5F)sc4-c4ncccc43)cc2)c1` [Example 11], with < 10 nM. `Cc1cnc(N2CC3(CCOCC3)C2)c(C(=O)Nc2ccc(C(=O)N3CCc4cc(C(=O)Nc5c(Cl)cccc5Cl)sc4-c4ncccc43)cc2)c1` [Example 12]: the EC50 was < 10 nM. On to `Cc1cnc(N2CC3(CCOCC3)C2)c(C(=O)Nc2ccc(C(=O)N3CCc4cc(C(=O)Nc5ncccn5)sc4-c4ncccc43)cc2)c1` [Example 14], for which the half-maximal effective concentration (EC50) is 10 to 50 nM.

For the compound `Cc1cnc(N2CC3(CCOCC3)C2)c(C(=O)Nc2ccc(C(=O)N3CCc4cc(C(=O)Nc5ncccc5F)sc4-c4ncccc43)cc2)c1` [Example 15], the EC50 was < 10 nM. Then `Cc1cnc(N2CC3(CCOCC3)C2)c(C(=O)Nc2ccc(C(=O)N3CCc4cc(C(=O)Nc5ncc(C)s5)sc4-c4ncccc43)cc2)c1` [Example 16], with < 10 nM; and `Cc1cnc(N2CC3(CCOCC3)C2)c(C(=O)Nc2ccc(C(=O)N3CCc4cc(C(=O)N[C@@H]5CCOC5)sc4-c4ncccc43)cc2)c1` [Example 17], with 10 to 50 nM; and `Cc1cnc(N2CC3(CCOCC3)C2)c(C(=O)Nc2ccc(C(=O)N3CCc4cc(C(=O)N[C@H]5CCOC5)sc4-c4ncccc43)cc2)c1` [Example 18], with 10 to 50 nM. In the case of `Cc1cnc(N2CC3(CCOCC3)C2)c(C(=O)Nc2ccc(C(=O)N3CCc4cc(C(=O)Nc5ccccn5)sc4-c4ncccc43)cc2)c1` [Example 19] it was < 10 nM. In the case of `Cc1cnc(N2CC3(CCOCC3)C2)c(C(=O)Nc2ccc(C(=O)N3CCc4cc(C(=O)Nc5cccnc5)sc4-c4ncccc43)cc2)c1` [Example 20] it was < 10 nM; in that of `Cc1cnc(N2CC3(CCOCC3)C2)c(C(=O)Nc2ccc(C(=O)N3CCc4cc(C(=O)Nc5ccncc5)sc4-c4ncccc43)cc2)c1` [Example 21], < 10 nM.

On to `Cc1cnc(N2CC3(CCOCC3)C2)c(C(=O)Nc2ccc(C(=O)N3CCc4cc(C(=O)Nc5ncccc5C)sc4-c4ncccc43)cc2)c1` [Example 22], for which the EC50 is < 10 nM. Then `Cc1cnc(N2CC3(CCOCC3)C2)c(C(=O)Nc2ccc(C(=O)N3CCc4cc(C(=O)Nc5cccc(C)n5)sc4-c4ncccc43)cc2)c1` [Example 23], with < 10 nM.

For `Cc1cnc(N2CC3(CCOCC3)C2)c(C(=O)Nc2ccc(C(=O)N3CCc4cc(C(=O)NCc5ccco5)sc4-c4ncccc43)cc2)c1` [Example 24], the EC50 was < 10 nM.

In the case of `COCC1(NC(=O)c2cc3c(s2)-c2ncccc2N(C(=O)c2ccc(NC(=O)c4cc(C)cnc4N4CC5(CCOCC5)C4)cc2)CC3)CCC1` [Example 25], the EC50 is < 10 nM. In the case of `Cc1cnc(N2CC3(CCOCC3)C2)c(C(=O)Nc2ccc(C(=O)N3CCc4cc(C(=O)NCc5ccccn5)sc4-c4ncccc43)cc2)c1` [Example 26], the EC50 is < 10 nM.

As for `Cc1cnc(N2CC3(CCOCC3)C2)c(C(=O)Nc2ccc(C(=O)N3CCc4cc(C(=O)NC5CCOCC5)sc4-c4ncccc43)cc2)c1` [Example 27], the concentration for a half-maximal effect (EC50) is < 10 nM. Take `Cc1cnc(N2CC3(CCOCC3)C2)c(C(=O)Nc2ccc(C(=O)N3CCc4cc(C(=O)NC[C@H]5CCCO5)sc4-c4ncccc43)cc2)c1` [Example 28]: the EC50 is < 10 nM.

On to `Cc1cnc(N2CC3(CCOCC3)C2)c(C(=O)Nc2ccc(C(=O)N3CCc4cc(C(=O)NCC5CCCO5)sc4-c4ncccc43)cc2)c1` (stereo not drawn) [Example 29], for which the 50% effective concentration (EC50) was < 10 nM. Consider `Cc1cnc(N2CC3(CCOCC3)C2)c(C(=O)Nc2ccc(C(=O)N3CCc4cc(C(=O)Nc5ncco5)sc4-c4ncccc43)cc2)c1` [Example 30], for which the EC50 is 10 to 50 nM. Take `Cc1cnc(N2CC3(CCOCC3)C2)c(C(=O)Nc2ccc(C(=O)N3CCc4cc(C(=O)Nc5cccnn5)sc4-c4ncccc43)cc2)c1` [Example 31]: the EC50 was < 10 nM. Consider `Cc1cnc(N2CC3(CCOCC3)C2)c(C(=O)Nc2ccc(C(=O)N3CCc4cc(C(=O)Nc5cccnc5C)sc4-c4ncccc43)cc2)c1` [Example 32], for which the half-maximal effective concentration (EC50) is < 10 nM. In the case of `Cc1cnc(N2CC3(CCOCC3)C2)c(C(=O)Nc2ccc(C(=O)N3CCc4cc(C(=O)Nc5cnccc5C)sc4-c4ncccc43)cc2)c1` [Example 33] it was < 10 nM. Regarding `Cc1cnc(N2CC3(CCOCC3)C2)c(C(=O)Nc2ccc(C(=O)N3CCc4cc(C(=O)Nc5ccncc5C)sc4-c4ncccc43)cc2)c1` [Example 34], the EC50 is < 10 nM. `Cc1cnc(N2CC3(CCOCC3)C2)c(C(=O)Nc2ccc(C(=O)N3CCc4cc(C(=O)Nc5nccs5)sc4-c4ncccc43)cc2)c1` [Example 35]: the EC50 is < 10 nM. For `Cc1cnc(N2CC3(CCOCC3)C2)c(C(=O)Nc2ccc(C(=O)N3CCc4cc(C(=O)NCc5cccnc5)sc4-c4ncccc43)cc2)c1` [Example 36], the EC50 lay in the range of 10 to 50 nM.

On to `Cc1cnc(N2CC3(CCOCC3)C2)c(C(=O)Nc2ccc(C(=O)N3CCc4cc(C(=O)Nc5c(Cl)cncc5Cl)sc4-c4ncccc43)cc2)c1` [Example 37], for which the EC50 is < 10 nM. `Cc1cnc(N2CC3(CCOCC3)C2)c(C(=O)Nc2ccc(C(=O)N3CCc4cc(-c5nc6ccccc6[nH]5)sc4-c4ncccc43)cc2)c1` [Example 38]: the EC50 was 10 to 50 nM. For `Cc1ccc(C(=O)Nc2ccc(C(=O)N3CCc4cc(C(=O)Nc5c(F)cccc5F)sc4-c4ncccc43)cc2)c(N2CC3(CCOCC3)C2)n1` [Example 39], the EC50 is < 10 nM. Turning to `Cc1ccc(C(=O)Nc2ccc(C(=O)N3CCc4cc(C(=O)Nc5c(F)cc(F)cc5F)sc4-c4ncccc43)cc2)c(N2CC3(CCOCC3)C2)n1` [Example 40], the half-maximal effective concentration (EC50) was < 10 nM.
